Publication PMC4413193, “3-[4-(1H-Indol-3-yl)-1,3-thiazol-2-yl]-1H-pyrrolo[2,3-b]pyridines, Nortopsentin Analogues with Antiproliferative Activity” (Marine Drugs, 2015)

What was measured:
NCI/ADR-RES = assay: NCI-60 in vitro tumor cell growth inhibition, NCI/ADR-RES (ovarian cancer); format: cell-based; settings: Homo sapiens, five concentration levels
Procedure: (§1) All the synthesized thiazoles 3a–k were evaluated by the National Cancer Institute (Bethesda MD) for cytotoxicity against the NCI-60 cell line panel using standard protocols. Initially, the selected derivatives 3c,d,g,h,j,k were tested at a single dose (10^−5 M) on the full panel of approximately 60 human tumor cell lines derived from 9 human cancer cell types, that have been grouped in disease sub-panels including leukemia, non-small-cell lung, colon, central nervous system (CNS), melanoma, ovarian, renal, prostate and breast cancers (data not shown). Compounds 3d and 3k were further selected for full evaluation at five concentration levels (10^−4–10^−8 M).
(§2) The antitumor activity of compounds 3d and 3k was given by three parameters for each cell line: GI50 (the molar concentration of the compound that inhibits 50% net cell growth), TGI (the molar concentration of the compound leading to total inhibition of net cell growth), and LC50 (the molar concentration of the compound that induces 50% net cell death). The average values of mean graph midpoint (MG_MID) were calculated for each of these parameters.

HepG2 cells [1] = assay: Intracellular reactive oxygen species, DCFH flow cytometry; format: cell-based, human; settings: HepG2, 24 h treatment
Procedure: Involvement of mitochondria in apoptosis induced in HepG2 cells by the synthesized nortopsentin analogues, was assessed. Loss of mitochondrial trans-membrane potential was indicated by decreased mitochondrial 3,30-dihexyloxacarbocyanine iodide-red fluorescence (Figure 4A).
ROS level was monitored by measuring fluorescence changes that resulted from intracellular oxidation of 2′,7′-dichlorofluorescin diacetate (DCFH). DCFH, at […] final concentration, was added to the cell medium 30 min before the end of the treatment. The cells were collected by centrifugation for 5 min at 2000 rpm at 4 °C, washed, suspended in PBS and immediately subjected to fluorescence-activated cell sorting analysis. At least 1 × 10^4 cells were analyzed for each sample.

A549/ATCC = assay: NCI-60 in vitro tumor cell growth inhibition, A549/ATCC (non-small cell lung cancer); format: cell-based; settings: Homo sapiens, five concentration levels
Procedure: as §1, §2

IGROV1 = assay: NCI-60 in vitro tumor cell growth inhibition, IGROV1 (ovarian cancer); format: cell-based; settings: Homo sapiens, IGROV-1, five concentration levels
Procedure: as §1, §2

MCF7 = assay: NCI-60 in vitro tumor cell growth inhibition, MCF7 (breast cancer); format: cell-based; settings: Homo sapiens, five concentration levels
Procedure: as §1, §2

HOP-62 = assay: NCI-60 in vitro tumor cell growth inhibition, HOP-62 (non-small cell lung cancer); format: cell-based; settings: Homo sapiens, five concentration levels
Procedure: as §1, §2

UACC-62 = assay: NCI-60 in vitro tumor cell growth inhibition, UACC-62 (melanoma); format: cell-based; settings: Homo sapiens, five concentration levels
Procedure: as §1, §2

MDA-MB-435 = assay: NCI-60 in vitro tumor cell growth inhibition, MDA-MB-435 (melanoma); format: cell-based; settings: Homo sapiens, five concentration levels
Procedure: as §1, §2

A498 = assay: NCI-60 in vitro tumor cell growth inhibition, A498 (renal cancer); format: cell-based; settings: Homo sapiens, five concentration levels
Procedure: as §1, §2

NCI-H226 = assay: NCI-60 in vitro tumor cell growth inhibition, NCI-H226 (non-small cell lung cancer); format: cell-based; settings: Homo sapiens, five concentration levels
Procedure: as §1, §2

MDA-MB-231/ATCC = assay: NCI-60 in vitro tumor cell growth inhibition, MDA-MB-231/ATCC (breast cancer); format: cell-based; settings: Homo sapiens, five concentration levels
Procedure: as §1, §2

SK-MEL-28 = assay: NCI-60 in vitro tumor cell growth inhibition, SK-MEL-28 (melanoma); format: cell-based; settings: Homo sapiens, five concentration levels
Procedure: as §1, §2

EKVK = assay: NCI-60 in vitro tumor cell growth inhibition, EKVK (non-small cell lung cancer); format: cell-based; settings: Homo sapiens, five concentration levels
Procedure: as §1, §2

MDA-MB-468 = assay: NCI-60 in vitro tumor cell growth inhibition, MDA-MB-468 (breast cancer); format: cell-based; settings: Homo sapiens, five concentration levels
Procedure: as §1, §2

SR = assay: NCI-60 in vitro tumor cell growth inhibition, SR (leukemia); format: cell-based; settings: Homo sapiens, five concentration levels 10^−4–10^−8 M
Procedure: as §1, §2

UACC-257 = assay: NCI-60 in vitro tumor cell growth inhibition, UACC-257 (melanoma); format: cell-based; settings: Homo sapiens, five concentration levels
Procedure: as §1, §2

SK-OV-3 = assay: NCI-60 in vitro tumor cell growth inhibition, SK-OV-3 (ovarian cancer); format: cell-based; settings: Homo sapiens, five concentration levels
Procedure: as §1, §2

HepG2 cells [2] = assay: Acridine orange/ethidium bromide morphological staining; format: cell-based, human; settings: HepG2, 24 h, at GI50 concentration
Description: To confirm apoptotic mechanism of cytotoxicity of the nortopsentin analogues, we carried out morphological evaluation of HepG2 cells using AO and EB double staining. […] Moreover, fluorescing orange cells owing to increase of cell permeability to ethidium bromide, cell shrinkage and nuclear fragmentation were also evident as cells in late apoptosis (Figure 3B). Taken together, these findings provided strong evidence that the synthesized nortopsentin analogues induced apoptosis in HepG2 cells.
Acridine orange (AO) stains DNA bright green, allowing visualization of the nuclear chromatin pattern and stains both live and dead cells. Ethidium bromide (EB) stains DNA orange but is excluded by viable cells. Dual staining allows separate enumeration of populations of viable non-apoptotic, viable (early) apoptotic, nonviable (late) apoptotic, and necrotic cells. Live cells appear uniformly green. […] Late apoptotic cells incorporate EB and therefore stain orange, but, in contrast to necrotic cells, the late apoptotic cells show condensed and often fragmented nuclei. Necrotic cells stain orange, but have a nuclear morphology resembling that of viable cells, with no condensed chromatin. Briefly, after HepG2 cells were treated with 3d or 3k compounds for 24 h, the medium was discarded. […]

HepG2 cells [3] = assay: Phosphatidylserine exposure, Annexin V-FITC/PI flow cytometry; format: cell-based, human; settings: HepG2, 24 h, at GI50 values
Procedure: Apoptosis induction by 3d and 3k in HepG2 cells was investigated by externalization of plasma membrane phosphatidylserine and changes of mitochondrial transmembrane potential.
The apoptosis-induced PS externalization to the cell surface was measured by flow cytometry by double staining with Annexin V-Fluorescein isothiocyanate (Annexin V-FITC)/propidium iodide (PI). Annexin V binding to phosphatidylserine is used to identify the earliest stage of apoptosis. […] HepG2 cells were seeded in triplicate in 24-wells culture plates at a density of 2.0 × 10^5 cells/cm^2. After an overnight incubation, cells were washed with fresh medium and incubated with the compounds in RPMI. After 24 h, cells were harvested by trypsinization and adjusted at 2.0 × 10^5 cells/mL with combining buffer. One hundred μL of cell suspended solution was added to a new tube, and incubated with 5 µL annexin V and 10 μL of a 20 μg/mL PI solution at room temperature in the dark for 15 min. Then at least 1.0 × 10^4 cells were immediately subjected to FACS analysis using appropriate 2-bidimensional gating method.

U251 = assay: NCI-60 in vitro tumor cell growth inhibition, U251 (CNS cancer); format: cell-based; settings: Homo sapiens, U-251, five concentration levels
Procedure: as §1, §2

MOLT-4 = assay: NCI-60 in vitro tumor cell growth inhibition, MOLT-4 (leukemia); format: cell-based; settings: Homo sapiens, five concentration levels 10^−4–10^−8 M
Procedure: as §1, §2

SK-MEL-2 = assay: NCI-60 in vitro tumor cell growth inhibition, SK-MEL-2 (melanoma); format: cell-based; settings: Homo sapiens, five concentration levels
Procedure: as §1, §2

CAKI-1 = assay: NCI-60 in vitro tumor cell growth inhibition, CAKI-1 (renal cancer); format: cell-based; settings: Homo sapiens, five concentration levels
Procedure: as §1, §2

MALME-3M = assay: NCI-60 in vitro tumor cell growth inhibition, MALME-3M (melanoma); format: cell-based; settings: Homo sapiens, five concentration levels
Procedure: as §1, §2

NCI-H23 = assay: NCI-60 in vitro tumor cell growth inhibition, NCI-H23 (non-small cell lung cancer); format: cell-based; settings: Homo sapiens, five concentration levels
Procedure: as §1, §2

SMILES | GI50 (NCI/ADR-RES) | levels of intracellular ROS (HepG2 cells [1]) | GI50 (A549/ATCC) | GI50 (IGROV1) | GI50 (MCF7) | GI50 (HOP-62) | GI50 (UACC-62) | GI50 (MDA-MB-435) | GI50 (A498) | GI50 (NCI-H226) | GI50 (MDA-MB-231/ATCC) | GI50 (SK-MEL-28) | GI50 (EKVK) | GI50 (MDA-MB-468) | GI50 (SR) | GI50 (UACC-257) | GI50 (SK-OV-3) | morphological evaluation, AO and EB double staining (HepG2 cells [2]) | apoptosis induction, externalized phosphatidylserine (HepG2 cells [3]) | GI50 (U251) | other results
Cn1cc(-c2nc(-c3c[nH]c4ccccc34)cs2)c2cccnc21 [Compound 3k, 3-[4-(1H-Indol-3-yl)-1,3-thiazol-2-yl]-1-methyl-1H-pyrrolo[2,3-b]pyridine] | 150 nM | significantly higher than cell control | 710 nM | 1180 nM | 370 nM | 930 nM | 420 nM | 40 nM | 370 nM | 650 nM | 1290 nM | 760 nM | 910 nM | 230 nM | 140 nM | 14200 nM | 520 nM | chromatin condensation and nuclear fragmentation | high percentage of cells in early apoptosis | 430 nM | GI50 (MOLT-4): 660 nM; GI50 (SK-MEL-2): 410 nM; GI50 (CAKI-1): 440 nM; GI50 (MALME-3M): 740 nM; GI50 (NCI-H23): 670 nM
Cn1cc(-c2csc(-c3cn(C)c4ncccc34)n2)c2ccccc21 [Compound 3d, 1-Methyl-3-[4-(1-methyl-1H-indol-3-yl)-1,3-thiazol-2-yl]-1H-pyrrolo[2,3-b]pyridine] | 90 nM | significantly higher than cell control | 560 nM | 1330 nM | 330 nM | 810 nM | 300 nM | 30 nM | 500 nM | 740 nM | 2820 nM | 1200 nM | 910 nM | 280 nM | 60 nM | 13000 nM | 570 nM | chromatin condensation and nuclear fragmentation | high percentage of cells in early apoptosis | 410 nM | GI50 (MOLT-4): 670 nM; GI50 (SK-MEL-2): 580 nM; GI50 (CAKI-1): 380 nM; GI50 (MALME-3M): 1040 nM; GI50 (NCI-H23): 720 nM
